Source: the NIST ThermoML archive (doi:10.1016/j.fluid.2011.06.011)

Experiment: refractive index (Na D-line) (dimensionless); xn = mol fraction of the nth substance listed
Details: 101 kPa, Liquid, Standard Abbe refractometry

C=CC(C)(O)CCC=C(C)C (stereo not drawn) [3,7-dimethyl-1,6-octadien-3-ol] + CCO
refractive index
Details | 283.15 K | 298.15 K | 313.15 K | 328.15 K
x1 = 0.0471 | – | – | – | 1.3611
x1 = 0.0493 | – | – | 1.3678 | –
x1 = 0.0506 | 1.38013 | 1.37416 | – | –
x1 = 0.1008 | 1.39241 | 1.38626 | 1.37996 | 1.37358
x1 = 0.1969 | 1.41091 | 1.40451 | 1.39788 | 1.39102
x1 = 0.2884 | 1.42392 | – | – | –
x1 = 0.2895 | – | 1.4175 | 1.41061 | 1.4036
x1 = 0.388 | 1.43469 | 1.42801 | – | –
x1 = 0.3957 | – | – | 1.42171 | 1.41452
x1 = 0.4803 | 1.44248 | – | – | –
x1 = 0.4834 | – | 1.4359 | 1.42883 | 1.42158
x1 = 0.56 | 1.44799 | – | – | –
x1 = 0.593 | – | 1.44306 | 1.43594 | 1.42859
x1 = 0.6838 | 1.45474 | 1.44779 | 1.44061 | 1.43327
x1 = 0.7832 | 1.45921 | – | – | –
x1 = 0.8438 | – | 1.45451 | 1.44732 | 1.43989
x1 = 0.8941 | 1.46319 | 1.45612 | 1.4489 | 1.4415
x1 = 0.9286 | 1.46443 | – | 1.45004 | 1.44266
x1 = 0.9337 | – | 1.45748 | – | –
x1 = 1 | 1.4666 | 1.45946 | 1.45215 | 1.44473
